Literature values, collected in patent US20240401031A1, “Platform Using iPSC-Derived Cardiomyocytes Carrying Gene Variants as Models of Cardiac Disease and Drug-Response” (SRI INTERNATIONAL, priority 2021, published 2024).

Conditions: source CredibleMeds

Compound | Risk (Torsade de Pointes)
CCc1cc(/C(C)=N/OCc2ccc(C3CCCCC3)c(C(F)(F)F)c2)ccc1CN1CC(C(=O)O)C1 [Siponimod] | (PR)
Clc1ccc(CCCOCCCN2CCCCC2)cc1 [Pitolisant] | (PR)
Cc1cccc([C@H](C)c2cnc[nH]2)c1C [Dexmedetomidine] | (PR)
CC(=O)N1CCN(c2ccc(OCC3COC(Cn4ccnc4)(c4ccc(Cl)cc4Cl)O3)cc2)CC1 (stereo not shown) [Ketoconazole] | (CR)
CN(C)CCOc1ccc(/C(=C(/CCCl)c2ccccc2)c2ccccc2)cc1 [Toremifene] | (PR)
CCC(C)n1ncn(-c2ccc(N3CCN(c4ccc(OCC5COC(Cn6cncn6)(c6ccc(Cl)cc6Cl)O5)cc4)CC3)cc2)c1=O (stereo not shown) [Itraconazole] | (CR)
CCC(=O)C(CC(C)N(C)C)(c1ccccc1)c1ccccc1 (stereo not shown) [Methadone] | (KR)
O=C1[O][Pt]2([NH][C@@H]3CCCC[C@H]3[NH]2)[O]C1=O [Oxaliplatin] | (KR)
CNC(=O)c1ccc(N2C(=S)N(c3cnc(C#N)c(C(F)(F)F)c3)C(=O)C23CCC3)cc1F [Apalutamide] | (PR)
CCN1CCC[C@H]1CNC(=O)c1cc(S(N)(=O)=O)ccc1OC [Levosulpiride] | (KR)
O=c1[nH]c2ccccc2n1C1CCN(CCCC(c2ccc(F)cc2)c2ccc(F)cc2)CC1 [Pimozide] | (KR)
FCOC(C(F)(F)F)C(F)(F)F [Sevoflurane] | (KR)
CN/C(=N/CCSCc1nc[nH]c1C)NC#N [Cimetidine] | (CR)
O=C1Nc2ccc(Cl)cc2[C@@](C#CC2CC2)(C(F)(F)F)O1 [Efavirenz] | (PR)
C[C@H]1NCc2cc(-c3ccc4c(=O)c(C(=O)O)cn(C5CC5)c4c3OC(F)F)ccc21 [Garenoxacin] | (CR)
CCc1nc(C(N)=O)c(Nc2ccc(N3CCC(N4CCN(C)CC4)CC3)c(OC)c2)nc1NC1CCOCC1 [Gilteritinib] | (PR)
COc1cc(Nc2c(C#N)cnc3cc(OCCCN4CCN(C)CC4)c(OC)cc23)c(Cl)cc1Cl [Bosutinib] | (PR)
COc1ccnc(C[S+]([O-])c2nc3ccc(OC(F)F)cc3[nH]2)c1OC (stereo not shown) [Pantoprazole] | (CR)
NCCc1ccc(O)c(O)c1 [Dopamine] | (SR)
CC(C)NCC(O)c1ccc(O)c(O)c1 (stereo not shown) [Isoproterenol] | (SR)
NC(N)=Nc1nc(CSCCC(N)=NS(N)(=O)=O)cs1 [Famotidine] | (CR)

Compound | Risk (Torsade de Pointes)
CCc1cc2c(cc1CC)CC(NC[C@H](O)c1ccc(O)c3[nH]c(=O)ccc13)C2 [Indacaterol] | (SR)
[Li] [Lithium] | (PR)
C=C[C@H]1C[N@@]2CC[C@H]1C[C@H]2[C@H](O)c1ccnc2ccc(OC)cc12 [Quinine] | (CR)
CNC[C@H](O)c1cccc(O)c1 [Phenylephrine] | (SR)
NC(=O)OCC(COC(N)=O)c1ccccc1 [Felbamate] | (PR)
CC(Oc1c(Cl)cccc1Cl)C1=NCCN1 (stereo not shown) [Lofexidine] | (PR)
Cc1nc(Nc2ncc(C(=O)Nc3c(C)cccc3Cl)s2)cc(N2CCN(CCO)CC2)n1 [Dasatinib] | (PR)
CC(C)Oc1ccc(-c2nc(-c3cccc4c3CC[C@@H]4NCCO)no2)cc1C#N [Ozanimod] | (PR)
C=CC[C@@H]1/C=C(\C)C[C@H](C)C[C@H](OC)[C@H]2O[C@@](O)(C(=O)C(=O)N3CCCC[C@H]3C(=O)O[C@H](/C(C)=C/[C@@H]3CC[C@@H](O)[C@H](OC)C3)[C@H](C)[C@@H](O)CC1=O)[C@H](C)C[C@@H]2OC [Tacrolimus] | (PR)
CC(CN1c2ccccc2Sc2ccccc21)N(C)C (stereo not shown) [Promethazine] | (PR)
CCCCCCCN(CC)CCCC(O)c1ccc(NS(C)(=O)=O)cc1 (stereo not shown) [Ibutilide] | (KR)
CC(NCCc1ccc(O)cc1)C(O)c1ccc(O)cc1 (stereo not shown) [Ritodrine] | (SR)
Cc1ccccc1N1C(=O)c2cc(S(N)(=O)=O)c(Cl)cc2NC1C (stereo not shown) [Metolazone] | (CR)
CCc1ccc(C(=O)C(C)CN2CCCCC2)cc1 (stereo not shown) [Eperisone] | (CR)
Cc1nccn1CC1CCc2c(c3ccccc3n2C)C1=O (stereo not shown) [Ondansetron] | (KR)
C[C@]12CC[C@H](O)CC1=CC[C@@H]1[C@@H]2CC[C@]2(C)C(c3cccnc3)=CC[C@@H]12 [Abiraterone] | (CR)
CC[C@@H](C(N)=O)N1CCCC1=O [Levetiracetam] | (PR)
CC(O)(CS(=O)(=O)c1ccc(F)cc1)C(=O)Nc1ccc(C#N)c(C(F)(F)F)c1 (stereo not shown) [Bicalutamide] | (PR)
CC(N)Cc1ccccc1 (stereo not shown) [Amphetamine] | (SR)
Cc1cc(Nc2ncc(Cl)c(Nc3ccccc3S(=O)(=O)C(C)C)n2)c(OC(C)C)cc1C1CCNCC1 [Ceritinib] | (PR)
OCCN1CCN(CC/C=C2/c3ccccc3Sc3ccc(Cl)cc32)CC1 [Zuclopenthixol] | (PR)

Compound | Risk (Torsade de Pointes)
CC(N)C(O)c1ccccc1 (stereo not shown) [Phenylpropanolamine] | (SR)
CCN(CC)CCNC(=O)c1cc(Cl)c(N)cc1OC [Metoclopramide] | (CR)
Cl.Cl.OCCN1CCN(CCC=C2c3ccccc3Sc3ccc(C(F)(F)F)cc32)CC1 (mixture of isomers) [Flupentixol] | (PR)
Cc1nc2n(c(=O)c1CCN1CCC(c3noc4cc(F)ccc34)CC1)CCCC2O (stereo not shown) [Paliperidone] | (PR)
O=C(CCCCCCC(=O)Nc1ccccc1)NO [Vorinostat] | (PR)
Cc1cc(C(C)(C)C)cc(C)c1CC1=NCCN1 [Xylometazoline] | (SR)
COc1cccc2c1C(=O)c1c(O)c3c(c(O)c1C2=O)C[C@@](O)(C(=O)CO)C[C@@H]3O[C@H]1C[C@H](N)[C@@H](O)[C@H](C)O1 [Epirubicin] | (PR)
CCOC(=O)C1=C(C)NC(C)=C(C(=O)OCC)C1c1ccccc1/C=C/C(=O)OC(C)(C)C [Lacidipine] | (PR)
CCN(CC)CCNC(=O)c1c(C)[nH]c(/C=C2\C(=O)Nc3ccc(F)cc32)c1C [Sunitinib] | (PR)
CS(=O)(=O)CCNCc1ccc(-c2ccc3ncnc(Nc4ccc(OCc5cccc(F)c5)c(Cl)c4)c3c2)o1 [Lapatinib] | (PR)
COc1ccc2[nH]c([S+]([O-])Cc3ncc(C)c(OC)c3C)nc2c1 (stereo not shown) [Omeprazole] | (CR)
CN(C)CCCC1(c2ccc(F)cc2)OCc2cc(C#N)ccc21 (stereo not shown) [Citalopram] | (KR)
[As] [Arsenic] | (KR)
COc1ccc2c(c1)N(C[C@H](C)CN(C)C)c1ccccc1S2 [Levomepromazine] | (KR)
CN1CCCCC1CCN1c2ccccc2Sc2ccc([S+](C)[O-])cc21 (stereo not shown) [Mesoridazine] | (KR)
CC(CN(C)C)CN1c2ccccc2CCc2ccccc21 (stereo not shown) [Trimipramine] | (PR)
Cc1c(O)cccc1C(=O)N[C@@H](CSc1ccccc1)[C@H](O)CN1C[C@H]2CCCC[C@H]2C[C@H]1C(=O)NC(C)(C)C [Nelfinavir] | (CR)
O=C1CCc2ccc(OCCCCN3CCN(c4cccc(Cl)c4Cl)CC3)cc2N1 [Aripiprazole] | (PR)
C[C@@H]1C[C@H]2[C@@H]3C[C@H](F)C4=CC(=O)C=C[C@]4(C)[C@@]3(F)[C@@H](O)C[C@]2(C)[C@@]1(O)C(=O)SCF [Fluticasone] | (SR)
CN1C2CCCC1CC(NC(=O)c1nn(C)c3ccccc13)C2 (stereo not shown) [Granisetron] | (PR)
[2H]C([2H])([2H])Oc1cc2c(cc1OC([2H])([2H])[2H])C1CC(=O)C(CC(C)C)CN1CC2 (stereo not shown) [Deutetrabenazine] | (PR)

Compound | Risk (Torsade de Pointes)
COc1ccsc1CNCC[C@@]1(c2ccccn2)CCOC2(CCCC2)C1 [Oliceridine] | (PR)
Cn1c(CCCC(=O)O)nc2cc(N(CCCl)CCCl)ccc21 [Bendamustine] | (PR)
CC(C)(N)Cc1ccccc1 [Phentermine] | (SR)
OCc1cc(C(O)CNCCCCCCOCCCCc2ccccc2)ccc1O (stereo not shown) [Salmeterol] | (SR)
C[C@@H](Oc1cc(-c2cnn(C3CCNCC3)c2)cnc1N)c1c(Cl)ccc(F)c1Cl [Crizotinib] | (PR)
Cc1cccc(Nc2ccncc2S(=O)(=O)NC(=O)NC(C)C)c1 [Torsemide] | (CR)
CNCCCC12CCC(c3ccccc31)c1ccccc12 [Maprotiline] | (PR)
CCCCc1oc2ccccc2c1C(=O)c1cc(I)c(OCCN(CC)CC)c(I)c1 [Amiodarone] | (KR)
CONC(=O)Nc1ccc(-c2sc3c(c2CN(C)C)c(=O)n(-c2ccc(OC)nn2)c(=O)n3Cc2c(F)cccc2F)cc1 [Relugolix] | (PR)
CNC[C@H](O)c1ccc(O)c(O)c1 [Epinephrine] | (SR)
COC(=O)C1=C(C)NC(C)=C(C(=O)OC(C)C)C1c1cccc2nonc12 (stereo not shown) [Isradipine] | (PR)
CC(C)N(CCC(C(N)=O)(c1ccccc1)c1ccccn1)C(C)C (stereo not shown) [Disopyramide] | (KR)
COc1cc2c(cc1OC)[C@H]1C[C@@H](OC(=O)[C@@H](N)C(C)C)[C@H](CC(C)C)CN1CC2 [Valbenazine] | (PR)
CC(CN(C)C)CN1c2ccccc2Sc2ccc(C#N)cc21 (stereo not shown) [Cyamemazine] | (PR)
CCCCCCCCc1ccc(CCC(N)(CO)CO)cc1 [Fingolimod] | (PR)
CN(CCOc1ccc(NS(C)(=O)=O)cc1)CCc1ccc(NS(C)(=O)=O)cc1 [Dofetilide] | (KR)
CCN(CC)CCNC(=O)c1cc(S(C)(=O)=O)ccc1OC [Tiapride] | (PR)
CNCC[C@@H](Oc1ccccc1C)c1ccccc1 [Atomoxetine] | (PR)
CN[C@@H](C)Cc1ccccc1 [Methamphetamine] | (SR)
